# From patent publication US8404435B2, “Enigma-Mdm2 interaction and uses thereof” (Korea Research Institute of Bioscience and Biotechnology, priority 2009, dated 2013)
# Columns and labels:
# Enigma promoter = assay: SRE-Luc / ΔSRE-Luc Enigma promoter reporter assay; type: cell-based; conditions: HLK3; 20, 40 ng/ml, 6 hours
# Experimental: After Enigma-Luc was induced into an HLK3 cell line (0.5 μg), was cultured in DMEM with 0.1% […] for 24 hours, and was cultured with 5% and 20% FBS added for 6 hours again, luciferase activity of collected cells were measured. As the result, activity of Enigma-Luc increased dependently on the concentration of serum (FIG. 9B).
# After SRE-Luc (0.5 μg), ΔSRE-Luc (0.5 μg), which were produced to test SRF dependence of Enigma expression, were induced into an HLK3 cell line, the cells were cultured in DMEM with 0.1% FBS for 24 hours, and were cultured with 5% and 20% FBS, FGF (20, 40 ng/ml), or HGF (20, 40 ng/ml) added for 6 hours again, luciferase activity of collected cells were measured.
# mouse liver = assay: SRF-Enigma-Mdm2-p53 pathway in mouse liver, Western blotting; type: in vivo, mice (Balb/c); conditions: HGF 100 μg/kg into tail vein, livers removed time-wise
# Experimental: The present inventors identified a change in SRF-Enigma-Mdm2-p53 by a Western blotting after injecting each of Ad-p53 or Ad-LacZ virus (5×10^8 pfu) into tail vein of mice (Balb/c, Female, Taconic) and after 24 hours injecting HGF (100 μg/kg) into tail vein of mice again, removing livers time-wise. As the result, HGF induced protein expression by transcriptionally activating SRF, Enigma was induced by SRF at transcription level, and an amount of protein increased.
# The present inventors, to observe a change in Mdm2-p53 according to a direct change in an amount of Enigma expression, identified an amount of each protein by a Western blotting after injecting or not injecting Ad-p53 into tail vein of mice (Balb/c, Female, Taconic) and after 24 hours injecting Ad-F-Enigma, Ad-LacZ, PBS into tail vein of mice again, removing livers after 48 hours. Furthermore, after injecting Ad-siEnigma, Ad-siControl and PBS into tail vein and injecting HGF into tail vein 8 hours before liver removal.
# HLK3 cell line = assay: HGF effect on SRF-Enigma-Mdm2-p53 pathway, Western blotting; type: cell-based; conditions: HGF 40, 60 ng/ml, 4 hours before cell collection
# Experimental: The present inventors investigated whether SRF-Enigma-Mdm2 pathway is also regulated by HGF. The present inventors, to show specific relevance of SRF, Enigma, identified changes in each protein by a Western blotting after inducing 10 μg each of siEnigma, siSRF into an HLK3 cell line, culturing them in a condition of removing serum, and processing each with HGF (40, 60 ng/ml) 4 hours before cell collection. […] Furthermore, the present inventors observed a change in Enigma and Mdm2 after directly inducing F-SRF into an HLK3 cell line concentration-wise (5, 10 μg).
# Mdm2 [1] = target: T1, Mdm2 (Homo sapiens, UniProt Q00987); assay: In vitro binding assay (GST pull-down / IP) of purified proteins; conditions: proteins purified from E. coli
# T1 construct: His; made in house; host or cells: E. coli
# Experimental: The present inventors, to test interaction between Enigma and Mdm2, generated mutants (F-PDZ, F-PDZ-LIM1, F-LIM) of Enigma in pCMVtaq2B vector by a common PCR cloning method, and produced mutants (GST-1-100, GST-101-491, GST-201-491, GST-301-491) of Mdm2 in pEBG vector by a PCR cloning method. His-Mdm2, Enigma, GST-p53, EniΔLIM3 proteins were respectively separated and purified from E. coli to identify the interaction in vitro.
# In vitro binding assay was performed to identify directly in-vitro interaction between respective proteins (1 μg His-Mdm2, 0.5 μg Enigma, 1 μg GST-p53) which are separated and purified from E. coli. Binding between respective proteins were induced after mixing, the bindings between proteins were identified by a GST pull-down and an IP method.
# A binding site was determined by using respective mutants produced from Enigma and Mdm2. First, each mutant vector (5 μg) was introduced into a 293 cell line where Hag-Enigma is constitutively expressed, and afterwards binding was identified by GST pull-down and by a Western blotting with a Hag antibody (FIG. 5D). Also, each Enigma mutant (5 μg) and GST-Mdm2 expression vector (5 μg) were introduced into a 293T cell line (ATCC) by a calcium phosphate method. At 24 hours, the cells were collected, and binding was identified by IP with a Flag antibody and by a Western blotting with a GST antibody (FIG. 5E). […]
# Mdm2 [2] = target: T1, Mdm2; assay: In vitro ubiquitination assay; type: biochemical
# Experimental: In vitro ubiquitination assay was performed to test self-ubiquitination of Mdm2 by Enigma's binding. After ubiquitin reaction mixture (including E1, E2, His-Ub, ATP) was added and reacted to His-Mdm2 protein (0.5 μg), His-Mdm2 (C464A: 0.5 μg), Enigma protein (0.5, 1 μg), F-EniΔLIM3 (1 μg), a change in self-ubiquitination and binding proteins for Mdm2 were identified by an IP/IB method. As the result, self-ubiquitination of Mdm2 was inhibited by F-Enigma, which binds to Mdm2, and Enigma had no effect on an Mdm2 (C464A) variant where 464-cysteine on the Mdm2 RING finger region was substituted by alanine (FIG. 7C). Also, Enigma stimulated Mdm2-mediated p53 ubiquitination in vitro (FIG. 7D). Thus, Enigma was identified as a determining factor that shifts specificity of Mdm2 E3 ligase from itself toward p53.
# PCAF (p300-CBP-associated factor) induces the ubiquitination of Mdm2 (Nat Cell Biol 9, 331-338, 2007). When proteins purified from bacteria and described in FIG. 5-1a were used to perform an in-vitro ubiquitin experiment, Enigma had no effect on Mdm2 ubiquitination by PCAF (FIG. 8A). This event was also tested in an Mdm2^−/−p53^−/− MEF cell line (FIG. 8B).
# [3] = test system: MRC5 (human normal fibroblast); assay: Serum response of SRF-Enigma-Mdm2 pathway in MRC5; type: cell-based
# Experimental: (§1) The present inventors identified serum response by using MRC5 (human normal fibroblast), MEF (mouse embryonic fibroblast) to identify presence of SRF-Enigma-Mdm2 pathway in normal cells. In case of MRC5, activity of SRF-Enigma-Mdm2 pathway by serum was inhibited when siSRF (10, 15 μg) is induced or PD98059 is present; in case of MEF, activity of SRF-Enigma-Mdm2 pathway was inhibited by PD98059 (FIGS. 12A and 12C). Thus, an amount of protein by transcriptional activity increased for SRF, Enigma, transcript level for Mdm2 (p1-Mdm2) and p53 was unvaried. However, transcript level for p2-Mdm2 changed dependently on an amount of p53 expression (FIGS. 12B and 12D).
# [4] = test system: MEF (mouse embryonic fibroblast); assay: Serum response of SRF-Enigma-Mdm2 pathway in MEF; type: cell-based
# Experimental: as §1
# [5] = test system: Mdm2+/+p53-/- MEF cell lines; assay: HGF effect on SRF-Enigma-Mdm2 pathway with or without PD98059; type: cell-based, mouse; conditions: Ad-p53 or Ad-LacZ induced
# Excerpt: Since an MAP kinase is known to be associated with SRF expression by cell growth factor (J Physiol Pharmacol 53, 147-157, 53, 2002), the present inventors hypothesized that an MAP kinase is associated with regulation of SRF-Enigma-Mdm2 pathway, and tested by using PD98059, MAP kinase-specific inhibitor. The present inventors treated the cells with HGF and with or without PD98059 after inducing Ad-p53 or Ad-LacZ into Mdm2^+/+p53^−/− MEF cell lines. As the result, PD98059 abolished the HGF effect on SRF-Enigma-Mdm2 pathway (FIG. 10E).
# T1 sequence (Q00987 whole entry): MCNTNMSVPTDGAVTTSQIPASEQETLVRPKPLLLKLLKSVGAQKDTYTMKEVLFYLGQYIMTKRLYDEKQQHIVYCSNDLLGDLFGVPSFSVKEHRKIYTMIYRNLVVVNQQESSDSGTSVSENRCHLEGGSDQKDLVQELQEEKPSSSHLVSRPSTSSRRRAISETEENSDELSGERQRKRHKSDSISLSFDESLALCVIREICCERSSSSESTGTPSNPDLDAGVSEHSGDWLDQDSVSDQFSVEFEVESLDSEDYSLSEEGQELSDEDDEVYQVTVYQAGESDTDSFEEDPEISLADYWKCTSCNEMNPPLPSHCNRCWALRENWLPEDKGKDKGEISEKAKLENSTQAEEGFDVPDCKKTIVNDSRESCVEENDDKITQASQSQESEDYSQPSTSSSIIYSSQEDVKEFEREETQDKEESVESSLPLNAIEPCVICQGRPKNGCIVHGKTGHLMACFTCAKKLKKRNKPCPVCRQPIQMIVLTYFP
molecule,measurement,setting,value
HGF: growth factor,reporter activity of SRE-Luc but not ΔSRE-Luc,Enigma promoter,increased dependently on the concentration of growth factor
same,amount of protein of Mdm2 and p53 in liver,mouse liver,the amount of protein in Mdm2 increased and simultaneously that of p53 decreased
same,"changes in SRF, Enigma, Mdm2, p53 protein",HLK3 cell line,an increase in SRF-Enigma-Mdm2 and a SRF- or Enigma-dependent decrease in p53
Enigma: Enigma protein separated and purified from E. coli,binding to Mdm2 in vitro,Mdm2 [1],bound to Mdm2 directly
same,Mdm2-mediated p53 ubiquitination in vitro,Mdm2 [2],stimulated
same,Mdm2 ubiquitination by PCAF in vitro,Mdm2 [2],no effect
same,self-ubiquitination of Mdm2 in vitro,"Mdm2 [2]; Enigma protein 0.5, 1 μg, His-Mdm2 0.5 μg",inhibited
COc1cccc(-c2cc(=O)c3ccccc3o2)c1N [PD98059],activity of SRF-Enigma-Mdm2 pathway by serum,[3],inhibited
same,activity of SRF-Enigma-Mdm2 pathway,[4],inhibited
same,HGF effect on SRF-Enigma-Mdm2 pathway,[5],abolished
